2 compounds from patent publication EP1591123A1, “USES OF NARINGENIN, NARINGIN AND SALTS THEREOF AS EXPECTORANTS IN THE TREATMENT OF COUGH, AND COMPOSITIONS THEREOF” (Su, Wei-wei, priority 2003, dated 2004) can be followed below.

The subject of the experiment is mice. Description: Dispel phlegm test of Naringenin, Phenol Red excretion in trachea (Example 31). Type of experiment: in vivo. Conditions: for Dispel phlegm ratio: group given drug / blank control group x 100%; for Excretion quantity of Phenol Red / Rectified excretion quantity of Phenol Red: mice, oral, X±S; for Rectified excretion quantity of Phenol Red: excretion quantity / weight of animal. From the text:
• 1. Animal: 80 healthy female mice weighing 18.5-22.0g was grouped into 8 groups random after labeled, which was selected from 90 female mice weighing 18.0-22.1g. Every group was 10 mice. Eight groups were set including negative control group, positive control group, high dose group of Naringenin, middle dose group of Naringenin, low dose group of Naringenin, high dose group of sodium salt of Naringenin, middle dose group of sodium salt of Naringenin, low dose group of sodium salt of Naringenin. […] Sample source and preparation • 1) Blank control group: physiological saline, 0.9% NaCl; • 2) Positive control group: 0.2g Tankejing was dissolve into 10 ml 0.9% NaCl and the sample concentration was 20 mg/ml to obtain the solution for positive control. • 3) low dose group of Naringenin: 0.5 mg/ml solution of Naringenin was prepared by weighting out the appropriate amount of 5 mg Naringenin and dissolving it by ultrasonication in 10 ml physiological saline. • 4) middle dose group of Naringenin: 1.5 mg/ml solution of Naringenin was prepared by weighting out the appropriate amount of 15 mg Naringenin and dissolving it by ultrasonication in 10 ml physiological saline. • 5) high dose group of Naringenin: 4.5 mg/ml solution of Naringenin was prepared by weighting out the appropriate amount of 45 mg Naringenin and dissolving it by ultrasonication in 10 ml physiological saline. • 6) low dose group of sodium salt of Naringenin: 0.5 mg/ml solution of sodium salt of Naringenin was prepared by weighting out the appropriate amount of 5 mg sodium salt of Naringenin and dissolving it by ultrasonication in 10 ml physiological saline. • 7) middle dose group of sodium salt of Naringenin: 1.5 mg/ml solution of sodium salt of Naringenin was prepared by weighting out the appropriate amount of 15 mg sodium salt of Naringenin and dissolving it by ultrasonication in 10 ml physiological saline. • 8) high dose group of sodium salt of Naringenin: 4.5 mg/ml solution of sodium salt of Naringenin was prepared by weighting out the appropriate amount of 45 mg sodium salt of Naringenin and dissolving it by ultrasonication in 10 ml physiological saline. • 3. Experimental Method: • 1) preparations of Phenol Red calibration standard: 12.5 ng/ml solution of Phenol Red was prepared by weighting out the appropriate amount of Phenol Red and dissolving it by ultrasonication in 5% NaHCO3. The series solution including 6.25ng/ml, 3.125ng/ml, 1.5625 ng/ml, 0.7813 ng/ml, 0.3906 ng/ml, 0.1953 ng/ml, 0.0977 ng/ml, 0.0488 ng/ml was prepared by diluting, which was detected by ultraviolet spectrometer. The calibration curve was calculated by concentration of Phenol Red as y-axis and OD value as x-axis. And the excretion account of Phenol Red in mice was quantitated by calibration curve. • 2) Animals were fasted for 12 hr before dosing. • 3) Animals were oral administered with labeled number, each animal was administered with 3 min and each group was accomplished in 30 min. • 4) After administered 30 min, every animal was injected 2 ml 5% Phenol Red solution via celiac injection. The time of every animal was 3 min. • 5) Every animal was executed with 3 min interval after celiac injection 30 min, and animal trachea was peeled off with forceps after neck skin sniped, which was riveted on operating table. • 6) plasma and Phenol Red adhered to trachea ektexine was sweeped by 0.9% NaCl solution with an injector. And filter paper was used to blot up the solution. • 7) Scissors cut down the animal trachea including thyroid cartilage and trachea back-end. • 8) The trachea was set in test tube with 1.5 ml 5% NaHCO3. • 9) The experiment of every animal was completed in 3 min. […]

Structures are written as SMILES. Structures can show the parent of a compound that is named as a salt.

Regarding `O=C1C[C@@H](c2ccc(O)cc2)Oc2cc(O)cc(O)c21` [sodium salt of Naringenin], for the setting “5 mg/kg”, the Dispel phlegm ratio stood at 148.72%, the “Excretion quantity of Phenol Red” value was 1.3029 ± 0.3069 ng and the “Rectified excretion quantity of Phenol Red” value (from here on “Rectified excretion quantity”) is 69.4942 ± 16.3724 ng/kg. Under “15 mg/kg”, the Dispel phlegm ratio amounted to 162.38%, the “Excretion quantity of Phenol Red” value is 1.4225 ± 0.7361 ng and the “Rectified excretion quantity” value was 75.8773 ± 39.2651 ng/kg. Besides, where the note is “45 mg/kg”, the Dispel phlegm ratio came to 224.93%, the “Excretion quantity of Phenol Red” value was 1.9705 ± 0.6898 ng and the “Rectified excretion quantity” value came out at 105.1057 ± 36.7945 ng/kg.

With `O=C1CC(c2ccc(O)cc2)Oc2cc(O)cc(O)c21` (centres unmarked) [Naringenin, 4', 5, 7 -trihydroxyflavanone], the Dispel phlegm ratio is on record as 146.13% (5 mg/kg), 159.97% (15 mg/kg) and 219.85% (45 mg/kg). In addition, the dispel phlegm effect result (high dose group compared to positive control group of Tankejing) is on record as “statistical better than Tankejing”. Also, the “Excretion quantity of Phenol Red” value is, setting by setting: (5 mg/kg) 1.2757 ± 0.4020 ng; (15 mg/kg) 1.3523 ± 0.9303 ng; (45 mg/kg) 1.9257 ± 0.6713 ng. Moreover, the “Rectified excretion quantity” value reads like this: (5 mg/kg) 68.2832 ± 23.6102 ng/kg; (15 mg/kg) 74.7504 ± 57.2020 ng/kg; (45 mg/kg) 102.7325 ± 41.0313 ng/kg. Besides, for the setting “three doses (low, middle, high), versus negative control group”, the “exudates increase of mice trachea” value is reported as “statistical significance stimulate the exudates increase of mice trachea”.
